According to patent publication US20190105337A1, “METHODS OF TREATING BACTERIAL INFECTIONS” (priority 2015, published 2019):
Several values for one entry are separate records, joined by “and”; a condition that tells them apart may be missing. Equal values may be shown once. Read-outs that look alike come from different tables or passages of the source.

Assays:
[1] = Example 5: expected Compound I free drug 24 h AUC according to dosage regimen, by individual subject (Table B); parameters: species or system human; conditions: for Expected Compound I free drug 24 h AUC: individual subjects
Description: Table B provides a summary of the analysis of different Compound I dosing regimens by individual subjects enrolled the study.

[2] = Example 1: pharmacokinetics of Compound I, single (SD) and multiple (MD, q8h 7 days) ascending doses, 3-hour IV infusion, healthy adult subjects; format: in vivo, human; conditions: for CL renal / AUC(0-t) / Cmax / Tmax / half-life / AUC(0-inf) / dose excreted: human, intravenous; for CL renal: plasma and urine; for AUC(0-t) / Cmax / Tmax / half-life / AUC(0-inf): plasma; for dose excreted: urine
Description: 56 healthy subjects were enrolled into one of 7 cohorts of 8 subjects each in the single ascending dose phase (250 mg, 500 mg, 750 mg, 1000 mg, 1250 mg, 1500 mg and 2000 mg). Thirty-two additional subjects were then enrolled into one of 4 cohorts in the multiple-dose phase (250 mg, 1000 mg, 1500 mg, and 2000 mg, given q8 h for 7 days). […] All infusions were administered over 3 hours. Plasma and urine samples were obtained after single or multiple doses and assayed for Compound I content using a validated HPLC/MS method.

[3] = 2 g q8h, Normal creatinine clearance

O=C(O)C[C@@H]1CC[C@H](NC(=O)Cc2cccs2)B(O)O1 [Compound I]
Expected Compound I free drug 24 h AUC ([1]; 500 mg q12h, 10-19 ml/min group): 505.1 µg·h/mL and 427.3 µg·h/mL and 493.6 µg·h/mL and 790.7 µg·h/mL and 830.3 µg·h/mL and 719.6 µg·h/mL | Expected Compound I free drug 24 h AUC ([1]; 500 mg q12h, 30-49 ml/min group): 119.3 µg·h/mL and 129.1 µg·h/mL and 115.2 µg·h/mL and 228.1 µg·h/mL and 251.1 µg·h/mL and 310.6 µg·h/mL | Expected Compound I free drug 24 h AUC ([1]; 500 mg q12h, >50 mL/min group): 70.0 µg·h/mL and 62.7 µg·h/mL and 69.2 µg·h/mL and 88.4 µg·h/mL and 70.7 µg·h/mL and 68.1 µg·h/mL and 108.4 µg·h/mL and 108.0 µg·h/mL | Expected Compound I free drug 24 h AUC ([1]; 500 mg q24h, 10-19 ml/min group): 252.5 µg·h/mL and 213.7 µg·h/mL and 246.8 µg·h/mL and 395.4 µg·h/mL and 415.1 µg·h/mL and 359.8 µg·h/mL | Expected Compound I free drug 24 h AUC ([1]; 500 mg q24h, 30-49 ml/min group): 59.6 µg·h/mL and 64.5 µg·h/mL and 57.6 µg·h/mL and 114.0 µg·h/mL and 125.5 µg·h/mL and 155.3 µg·h/mL | Expected Compound I free drug 24 h AUC ([1]; 500 mg q24h, >50 mL/min group): 35.0 µg·h/mL and 31.4 µg·h/mL and 34.6 µg·h/mL and 44.2 µg·h/mL and 35.4 µg·h/mL and 34.1 µg·h/mL and 54.2 µg·h/mL and 54.0 µg·h/mL | Expected Compound I free drug 24 h AUC ([1]; 1 g q8h, 10-19 ml/min group): 1515.2 µg·h/mL and 1281.9 µg·h/mL and 1480.9 µg·h/mL and 2372.2 µg·h/mL and 2490.8 µg·h/mL and 2158.8 µg·h/mL | Expected Compound I free drug 24 h AUC ([1]; 1 g q8h, 30-49 ml/min group): 357.8 µg·h/mL and 387.2 µg·h/mL and 345.5 µg·h/mL and 684.2 µg·h/mL and 753.3 µg·h/mL and 931.8 µg·h/mL | Expected Compound I free drug 24 h AUC ([1]; 1 g q8h, >50 mL/min group): 210.0 µg·h/mL and 188.2 µg·h/mL and 207.5 µg·h/mL and 265.2 µg·h/mL and 212.1 µg·h/mL and 204.3 µg·h/mL and 325.3 µg·h/mL and 324.0 µg·h/mL | Expected Compound I free drug 24 h AUC ([1]; 1 g q24h, 10-19 ml/min group): 505.1 µg·h/mL and 427.3 µg·h/mL and 493.6 µg·h/mL and 790.7 µg·h/mL and 830.3 µg·h/mL and 719.6 µg·h/mL | Expected Compound I free drug 24 h AUC ([1]; 1 g q24h, 30-49 ml/min group): 119.3 µg·h/mL and 129.1 µg·h/mL and 115.2 µg·h/mL and 228.1 µg·h/mL and 251.1 µg·h/mL and 310.6 µg·h/mL | Expected Compound I free drug 24 h AUC ([1]; 1 g q24h, >50 mL/min group): 70.0 µg·h/mL and 62.7 µg·h/mL and 69.2 µg·h/mL and 88.4 µg·h/mL and 70.7 µg·h/mL and 68.1 µg·h/mL and 108.4 µg·h/mL and 108.0 µg·h/mL | Expected Compound I free drug 24 h AUC, Mean [1, 3]: 358 µg·h/mL | Expected Compound I free drug 24 h AUC, Range [1, 3]: 284 to 470 µg·h/mL | Expected Compound I free drug 24 h AUC ([1]; 2 g q8h, 10-19 ml/min group): 3030.3 µg·h/mL and 2563.8 µg·h/mL and 2961.8 µg·h/mL and 4744.3 µg·h/mL and 4981.6 µg·h/mL and 4317.6 µg·h/mL | Expected Compound I free drug 24 h AUC ([1]; 2 g q8h, 30-49 ml/min group): 715.7 µg·h/mL and 774.5 µg·h/mL and 690.9 µg·h/mL and 1368.4 µg·h/mL and 1506.5 µg·h/mL and 1863.5 µg·h/mL | Expected Compound I free drug 24 h AUC ([1]; 2 g q8h, >50 mL/min group): 420.0 µg·h/mL and 376.3 µg·h/mL and 415.0 µg·h/mL and 530.5 µg·h/mL and 424.2 µg·h/mL and 408.7 µg·h/mL and 650.6 µg·h/mL and 648.1 µg·h/mL | CLNon-R ([2]; 250 mg multiple dose): 2.49 L/h | CLNon-R ([2]; 250 mg single dose): 2.85 L/h | CLNon-R ([2]; 500 mg single dose): 2.55 L/h | CLNon-R ([2]; 750 mg single dose): 1.72 L/h | CLNon-R ([2]; 1000 mg multiple dose): 2.31 L/h | CLNon-R ([2]; 1000 mg single dose): 0.97 L/h | CLNon-R ([2]; 1250 mg single dose): 1.33 L/h | CLNon-R ([2]; 1500 mg multiple dose): 1.68 L/h | CLNon-R ([2]; 1500 mg single dose): 1.42 L/h | CLNon-R ([2]; 2000 mg multiple dose): 1.15 L/h | CLNon-R ([2]; 2000 mg single dose): -1.07 L/h | exposure (Cmax and AUC) versus dose ([2]; following single and multiple doses): increased in a dose-proportional manner | CL renal ([2]; 250 mg, 250 mg multiple dose): 212 mL/min | CL renal ([2]; 250 mg, 250 mg single dose): 212 mL/min | CL renal ([2]; 500 mg, 500 mg single dose): 197 mL/min | CL renal ([2]; 750 mg, 750 mg single dose): 217 mL/min | CL renal ([2]; 1000 mg, 1000 mg multiple dose): 195 mL/min | CL renal ([2]; 1000 mg, 1000 mg single dose): 202 mL/min | CL renal ([2]; 1250 mg, 1250 mg single dose): 192 mL/min | CL renal ([2]; 1500 mg, 1500 mg multiple dose): 187 mL/min | CL renal ([2]; 1500 mg, 1500 mg single dose): 197 mL/min | CL renal ([2]; 2000 mg, 2000 mg multiple dose): 213 mL/min | CL renal ([2]; 2000 mg, 2000 mg single dose): 252 mL/min | AUC(0-t) ([2]; 250 mg, 250 mg multiple dose): 16.3 µg·h/mL | Cmax ([2]; 250 mg, 250 mg multiple dose): 4810 ng/mL | Tmax ([2]; 250 mg, 250 mg multiple dose): 2.25 h | half-life ([2]; 250 mg, 250 mg multiple dose, read-out: T1/2 (converted)): 1.17 h | AUC(0-t) ([2]; 250 mg, 250 mg single dose): 16.2 µg·h/mL | Cmax ([2]; 250 mg, 250 mg single dose): 5030 ng/mL | Tmax ([2]; 250 mg, 250 mg single dose): 3.02 h | half-life ([2]; 250 mg, 250 mg single dose, read-out: T1/2 (converted)): 1.17 h | AUC(0-t) ([2]; 500 mg, 500 mg single dose): 34.5 µg·h/mL | Cmax ([2]; 500 mg, 500 mg single dose): 9970 ng/mL | Tmax ([2]; 500 mg, 500 mg single dose): 3 h | half-life ([2]; 500 mg, 500 mg single dose, read-out: T1/2 (converted)): 1.35 h | AUC(0-t) ([2]; 750 mg, 750 mg single dose): 50.6 µg·h/mL | Cmax ([2]; 750 mg, 750 mg single dose): 15300 ng/mL | Tmax ([2]; 750 mg, 750 mg single dose): 3 h | half-life ([2]; 750 mg, 750 mg single dose, read-out: T1/2 (converted)): 1.24 h | AUC(0-t) ([2]; 1000 mg, 1000 mg multiple dose): 74.6 µg·h/mL | Cmax ([2]; 1000 mg, 1000 mg multiple dose): 21300 ng/mL | Tmax ([2]; 1000 mg, 1000 mg multiple dose): 3 h | half-life ([2]; 1000 mg, 1000 mg multiple dose, read-out: T1/2 (converted)): 1.43 h | AUC(0-t) ([2]; 1000 mg, 1000 mg single dose): 76.7 µg·h/mL | Cmax ([2]; 1000 mg, 1000 mg single dose): 21800 ng/mL | Tmax ([2]; 1000 mg, 1000 mg single dose): 3.01 h | half-life ([2]; 1000 mg, 1000 mg single dose, read-out: T1/2 (converted)): 1.41 h | AUC(0-t) ([2]; 1250 mg, 1250 mg single dose): 97.2 µg·h/mL | Cmax ([2]; 1250 mg, 1250 mg single dose): 27800 ng/mL | Tmax ([2]; 1250 mg, 1250 mg single dose): 3 h | half-life ([2]; 1250 mg, 1250 mg single dose, read-out: T1/2 (converted)): 1.32 h | AUC(0-t) ([2]; 1500 mg, 1500 mg multiple dose): 118 µg·h/mL | Cmax ([2]; 1500 mg, 1500 mg multiple dose): 33400 ng/mL | Tmax ([2]; 1500 mg, 1500 mg multiple dose): 3 h | half-life ([2]; 1500 mg, 1500 mg multiple dose, read-out: T1/2 (converted)): 1.65 h | AUC(0-t) ([2]; 1500 mg, 1500 mg single dose): 110 µg·h/mL | Cmax ([2]; 1500 mg, 1500 mg single dose): 32900 ng/mL | Tmax ([2]; 1500 mg, 1500 mg single dose): 3.01 h | half-life ([2]; 1500 mg, 1500 mg single dose, read-out: T1/2 (converted)): 1.4 h | AUC(0-t) ([2]; 2000 mg, 2000 mg multiple dose): 145 µg·h/mL | Cmax ([2]; 2000 mg, 2000 mg multiple dose): 40900 ng/mL | Tmax ([2]; 2000 mg, 2000 mg multiple dose): 2.25 h | half-life ([2]; 2000 mg, 2000 mg multiple dose, read-out: T1/2 (converted)): 1.66 h | AUC(0-t) ([2]; 2000 mg, 2000 mg single dose): 140 µg·h/mL | Cmax ([2]; 2000 mg, 2000 mg single dose): 41600 ng/mL | Tmax ([2]; 2000 mg, 2000 mg single dose): 3.02 h | half-life ([2]; 2000 mg, 2000 mg single dose, read-out: T1/2 (converted)): 1.51 h | half-life ([2]; observed, single and multiple doses, read-out: terminal half-life): < 2 h | AUC(0-inf) ([2]; 250 mg single dose): 16.6 µg·h/mL | AUC(0-inf) ([2]; 500 mg single dose): 35.6 µg·h/mL | AUC(0-inf) ([2]; 750 mg single dose): 51.8 µg·h/mL | AUC(0-inf) ([2]; 1000 mg single dose): 79.3 µg·h/mL | AUC(0-inf) ([2]; 1250 mg single dose): 100 µg·h/mL | AUC(0-inf) ([2]; 1500 mg single dose): 114 µg·h/mL | AUC(0-inf) ([2]; 2000 mg single dose): 144 µg·h/mL | dose excreted ([2]; 250 mg, 250 mg multiple dose, read-out: Urinary Recovery): 79.9% | dose excreted ([2]; 250 mg, 250 mg single dose, read-out: Urinary Recovery): 81.3% | dose excreted ([2]; 500 mg, 500 mg single dose, read-out: Urinary Recovery): 80.3% | dose excreted ([2]; 750 mg, 750 mg single dose, read-out: Urinary Recovery): 86.4% | dose excreted ([2]; 1000 mg, 1000 mg multiple dose, read-out: Urinary Recovery): 82.8% | dose excreted ([2]; 1000 mg, 1000 mg single dose, read-out: Urinary Recovery): 89.9% | dose excreted ([2]; 1250 mg, 1250 mg single dose, read-out: Urinary Recovery): 86.9% | dose excreted ([2]; 1500 mg, 1500 mg multiple dose, read-out: Urinary Recovery): 86.8% | dose excreted ([2]; 1500 mg, 1500 mg single dose, read-out: Urinary Recovery): 86.6% | dose excreted ([2]; 2000 mg, 2000 mg multiple dose, read-out: Urinary Recovery): 91.6% | dose excreted ([2]; 2000 mg, 2000 mg single dose, read-out: Urinary Recovery): 105% | dose excreted ([2]; over 48 hours across all dose groups, read-out: Urinary recovery): ≥ 80% | accumulation with multiple doses ([2]; q8h for 7 days): no evidence of accumulation
